Assay results published in patent US7186831B2, “5-halo-2-alkyl[1,2,4]triazolo[1,5-a]pyrimidin-7-amines” (priority 2001, dated 2007).

Experiment: log P by HPLC
Format: physicochemical
Details: EEC directive 79/831 Annex V. A8 by HPLC (gradient method, acetonitrile/0.1% aqueous phosphoric acid)

For `Cc1nc2nc(Cl)c(-c3c(F)cccc3F)c(N3CCCC(O)C3)n2n1` (centres unmarked) [compound 314], the logP was 2.03.

For `Cc1nc2nc(Cl)c(-c3c(F)cccc3F)c(N3CCC(C)(C)CC3)n2n1` [compound 315], the logP was 3.91.

Work on `CCC1=CCN(c2c(-c3c(F)cccc3F)c(Cl)nc3nc(C)nn23)CC1` [compound 316] yielded a logP of 3.84.

`CC1=CCCN(c2c(-c3c(F)cccc3F)c(Cl)nc3nc(C)nn23)C1` [compound 317] showed a logP of 3.39.

In the case of `COC(=O)C1CCN(c2c(-c3c(F)cccc3F)c(Cl)nc3nc(C)nn23)CC1` [compound 318], the logP is reported as 2.69.

`Cc1nc2nc(Cl)c(-c3c(F)cccc3F)c(N3CCC(Br)CC3)n2n1` [compound 319] gave a logP of 3.33.

For `COC(=O)C1CCCCN1c1c(-c2c(F)cccc2F)c(Cl)nc2nc(C)nn12` (centres unmarked) [compound 320], the logP was 3.04.

Compound `Cc1nc2nc(Cl)c(-c3c(F)cccc3F)c(N3CCC(NC(=O)OC(C)(C)C)CC3)n2n1` [compound 321] has a logP of 3.15.

In the case of `Cc1nc2nc(Cl)c(-c3ccccc3F)c(N3CCC(N4CCOCC4)CC3)n2n1` [compound 322], the logP is reported as 1.26.

Work on `CC(=O)NC1CCN(c2c(-c3c(F)cccc3F)c(Cl)nc3nc(C)nn23)CC1` [compound 323] yielded a logP of 1.78.

`Cc1nc2nc(Cl)c(-c3c(F)cccc3F)c(N3CCN(C)CC3)n2n1` [compound 324] gave a logP of 1.12.

With `Cc1cccc(Nc2c(-c3c(F)cccc3F)c(Cl)nc3nc(C)nn23)c1` [compound 326] the logP was 2.89.

In the case of `Cc1nc2nc(Cl)c(-c3c(F)cccc3F)c(N3CCc4ccccc4C3)n2n1` [compound 327], the logP is reported as 3.22.

With `Cc1nc2nc(Cl)c(-c3c(F)cccc3F)c(NCC(C)C)n2n1` [compound 328] the logP was 2.85.

With `Cc1nc2nc(Cl)c(-c3c(F)cccc3F)c(NCC(C)(C)C)n2n1` [compound 329] the logP was 3.27.

`Cc1nc2nc(Cl)c(-c3c(F)cccc3F)c(NC(C)CC(C)C)n2n1` (centres unmarked) [compound 330] showed a logP of 3.55.

`C#CCN(C)c1c(-c2c(F)cccc2F)c(Cl)nc2nc(C)nn12` [compound 331] gave a logP of 2.54.

`Cc1nc2nc(Cl)c(-c3c(F)cccc3F)c(N(C)CC3OCCO3)n2n1` [compound 332] gave a logP of 2.43.

In the case of `C=CCN(C)c1c(-c2c(F)cccc2F)c(Cl)nc2nc(C)nn12` [compound 333], the logP is reported as 2.95.

With `COC(CN(C)c1c(-c2c(F)cccc2F)c(Cl)nc2nc(C)nn12)OC` [compound 334] the logP was 2.55.

With `Cc1nc2nc(Cl)c(-c3c(F)cccc3F)c(N(C)CC(C)C)n2n1` [compound 335] the logP was 3.37.

`COCCN(C)c1c(-c2c(F)cccc2F)c(Cl)nc2nc(C)nn12` [compound 336] gave a logP of 2.45.

In the case of `C=C(C)CN(C)c1c(-c2c(F)cccc2F)c(Cl)nc2nc(C)nn12` [compound 337], the logP is reported as 3.3.

`CCCCN(C)c1c(-c2c(F)cccc2F)c(Cl)nc2nc(C)nn12` [compound 338] gave a logP of 3.46.

With `C=C(C)CN(CC)c1c(-c2c(F)cccc2F)c(Cl)nc2nc(C)nn12` [compound 339] the logP was 3.65.

With `CCN(Cc1ccco1)c1c(-c2c(F)cccc2F)c(Cl)nc2nc(C)nn12` [compound 340] the logP was 3.28.

In the case of `CCN(CC1CCCO1)c1c(-c2c(F)cccc2F)c(Cl)nc2nc(C)nn12` (centres unmarked) [compound 341], the logP is reported as 3.

`CCN(CCOC)c1c(-c2c(F)cccc2F)c(Cl)nc2nc(C)nn12` [compound 342] gave a logP of 2.74.

`CCOC(=O)CN(CC)c1c(-c2c(F)cccc2F)c(Cl)nc2nc(C)nn12` [compound 343] showed a logP of 2.85.

With `CCCCN(CC)c1c(-c2c(F)cccc2F)c(Cl)nc2nc(C)nn12` [compound 344] the logP was 3.82.

Work on `CCCN(CC1CC1)c1c(-c2c(F)cccc2F)c(Cl)nc2nc(C)nn12` [compound 345] yielded a logP of 3.83.

`CCCN(CC1CCCCO1)c1c(-c2c(F)cccc2F)c(Cl)nc2nc(C)nn12` (centres unmarked) [compound 346] gave a logP of 3.95.

In the case of `CCCN(CC1CCCO1)c1c(-c2c(F)cccc2F)c(Cl)nc2nc(C)nn12` (centres unmarked) [compound 347], the logP is reported as 3.39.

`CCCN(CCOC)c1c(-c2c(F)cccc2F)c(Cl)nc2nc(C)nn12` [compound 348] gave a logP of 3.12.

Compound `Cc1nc2nc(Cl)c(-c3ccc(F)cc3F)c(NC3CCCC(C(F)(F)F)C3)n2n1` (centres unmarked) [compound 349] has a logP of 3.52.

With `Cc1nc2nc(Cl)c(-c3ccc(F)cc3F)c(N(C)CCN(C)C)n2n1` [compound 350] the logP was 1.23.

Compound `C#CCN(C)c1c(-c2ccc(F)cc2F)c(Cl)nc2nc(C)nn12` [compound 351] has a logP of 2.67.

Work on `COCCN(C)c1c(-c2ccc(F)cc2F)c(Cl)nc2nc(C)nn12` [compound 352] yielded a logP of 2.58.

`CCN(CCN(C)C)c1c(-c2ccc(F)cc2F)c(Cl)nc2nc(C)nn12` [compound 353] gave a logP of 1.37.

Compound `CCN(Cc1ccco1)c1c(-c2ccc(F)cc2F)c(Cl)nc2nc(C)nn12` [compound 354] has a logP of 3.39.

In the case of `CCOC(=O)CN(CC)c1c(-c2ccc(F)cc2F)c(Cl)nc2nc(C)nn12` [compound 355], the logP is reported as 3.04.

In the case of `CCCN(CC1CC1)c1c(-c2ccc(F)cc2F)c(Cl)nc2nc(C)nn12` [compound 356], the logP is reported as 3.91.

For `CCCN(CC1CCCO1)c1c(-c2ccc(F)cc2F)c(Cl)nc2nc(C)nn12` (centres unmarked) [compound 357], the logP was 3.6.

In the case of `CC(Nc1c(-c2ccc(F)cc2F)c(Cl)nc2nc(C(F)(F)F)nn12)C(F)(F)F` (centres unmarked) [compound 358], the logP is reported as 3.89.

Compound `Cc1nc2nc(Cl)c(-c3ccccc3F)c(NOCC(C)C)n2n1` [compound 361] has a logP of 2.98.

`CCONc1c(-c2ccccc2F)c(Cl)nc2nc(C)nn12` [compound 362] showed a logP of 2.28.

With `Cc1nc2nc(Cl)c(-c3ccccc3F)c(NOCc3ccccc3)n2n1` [compound 363] the logP was 2.93.

Work on `Cc1nc2nc(Cl)c(-c3ccccc3F)c(NOCc3cc(Cl)cc(Cl)c3)n2n1` [compound 364] yielded a logP of 3.76.

With `Cc1nc2nc(Cl)c(-c3ccccc3F)c(NOCc3ccc(C(F)(F)F)cc3)n2n1` [compound 365] the logP was 3.43.

With `Cc1nc2nc(Cl)c(-c3ccccc3F)c(NOCc3ccccc3Cl)n2n1` [compound 366] the logP was 3.21.

With `Cc1nc2nc(Cl)c(-c3ccccc3F)c(NOCc3cccc(Cl)c3)n2n1` [compound 367] the logP was 3.28.

`Cc1nc2nc(Cl)c(-c3ccccc3F)c(NOCc3ccc(Cl)cc3)n2n1` [compound 368] gave a logP of 3.3.

Work on `Cc1nc2nc(Cl)c(-c3ccccc3F)c(NOCc3ccc(F)cc3)n2n1` [compound 369] yielded a logP of 2.98.

For `CCC(C)ONc1c(-c2ccccc2F)c(Cl)nc2nc(C)nn12` (centres unmarked) [compound 370], the logP was 2.87.

In the case of `Cc1nc2nc(Cl)c(-c3ccccc3F)c(NOCc3cccc(C(F)(F)F)c3)n2n1` [compound 371], the logP is reported as 3.38.

`CCCCONc1c(-c2ccccc2F)c(Cl)nc2nc(C)nn12` [compound 372] showed a logP of 2.98.

With `C=CCONc1c(-c2ccccc2F)c(Cl)nc2nc(C)nn12` [compound 373] the logP was 2.42.

Compound `Cc1nc2nc(Cl)c(-c3ccccc3F)c(NOC(C)(C)C)n2n1` [compound 374] has a logP of 2.75.

`Cc1nc2nc(Cl)c(-c3ccccc3F)c(NOC3CCCCO3)n2n1` (centres unmarked) [compound 375] showed a logP of 2.59.

Work on `CONc1c(-c2ccccc2F)c(Cl)nc2nc(C)nn12` [compound 376] yielded a logP of 2.03.

In the case of `CON(C)c1c(-c2ccccc2F)c(Cl)nc2nc(C)nn12` [compound 377], the logP is reported as 2.5.

Work on `Cc1nc2nc(Cl)c(-c3ccccc3F)c(NOC(C)C)n2n1` [compound 378] yielded a logP of 2.54.

Compound `Cc1nc2nc(Cl)c(-c3c(F)cc(F)cc3F)c(NC(C)C3CC3)n2n1` (centres unmarked) [compound 379] has a logP of 3.09.

`CCN(CC(F)(F)F)c1c(-c2c(F)cc(F)cc2F)c(Cl)nc2nc(C)nn12` [compound 380] showed a logP of 3.42.

Work on `Cc1nc2nc(Cl)c(-c3ccccc3F)c(N(C)C)n2n1` [compound 381] yielded a logP of 2.34.

Compound `Cc1nc2nc(Cl)c(-c3ccccc3F)c(N3CC(C)OC(C)C3)n2n1` (centres unmarked) [compound 382] has a logP of 2.8.

Compound `CCNc1c(-c2ccccc2F)c(Cl)nc2nc(C)nn12` [compound 383] has a logP of 2.3.

In the case of `Cc1nc2nc(Cl)c(-c3ccccc3F)c(N3CCCCC3)n2n1` [compound 384], the logP is reported as 3.19.

`Cc1nc2nc(Cl)c(-c3ccccc3F)c(NC3CCCC3)n2n1` [compound 385] gave a logP of 3.11.

`Cc1nc2nc(Cl)c(-c3ccccc3F)c(NC(C)C)n2n1` [compound 386] gave a logP of 2.63.

Work on `CCN(CC)c1c(-c2ccccc2F)c(Cl)nc2nc(C)nn12` [compound 387] yielded a logP of 2.95.

With `Cc1nc2nc(Cl)c(-c3ccccc3F)c(N3CCOCC3)n2n1` [compound 388] the logP was 2.16.

`CNc1c(-c2ccccc2F)c(Cl)nc2nc(C)nn12` [compound 389] showed a logP of 2.02.

For `Cc1nc2nc(Cl)c(-c3ccccc3F)c(NC3CC3)n2n1` [compound 390], the logP was 2.41.

Work on `Cc1nc2nc(Cl)c(-c3ccccc3F)c(NCC(F)(F)F)n2n1` [compound 391] yielded a logP of 2.53.

`Cc1nc2nc(Cl)c(-c3ccccc3F)c(N3CCC(C(F)(F)F)CC3)n2n1` [compound 392] showed a logP of 3.37.

Work on `Cc1nc2nc(Cl)c(-c3ccccc3F)c(NCC3CC3)n2n1` [compound 393] yielded a logP of 2.72.

For `C=C(C)CNc1c(-c2ccccc2F)c(Cl)nc2nc(C)nn12` [compound 394], the logP was 2.68.

With `Cc1nc2nc(Cl)c(-c3ccccc3F)c(NCCC(F)(F)F)n2n1` [compound 395] the logP was 2.7.

Compound `Cc1nc2nc(Cl)c(-c3ccccc3F)c(NC(C)C3CCCCC3)n2n1` (centres unmarked) [compound 396] has a logP of 4.16.

For `Cc1nc2nc(Cl)c(-c3ccccc3F)c(NC3CCCCC3)n2n1` [compound 397], the logP was 3.43.

`Cc1nc2nc(Cl)c(-c3ccccc3F)c(NC3CCCCC3C(F)(F)F)n2n1` (centres unmarked) [compound 398] showed a logP of 3.49.

`Cc1nc2nc(Cl)c(-c3ccccc3F)c(NC3CC(C(F)(F)F)CC(C(F)(F)F)C3)n2n1` (centres unmarked) [compound 399] showed a logP of 3.73.

Work on `Cc1nc2nc(Cl)c(-c3ccccc3F)c(NC3CCC(C(F)(F)F)CC3)n2n1` (centres unmarked) [compound 400] yielded a logP of 3.48.

In the case of `Cc1nc2nc(Cl)c(-c3ccccc3Cl)c(N3CCCCC3C)n2n1` (centres unmarked) [compound 401], the logP is reported as 3.91.

Work on `Cc1nc2nc(Cl)c(-c3ccccc3Cl)c(N3CCC(F)CC3)n2n1` [compound 402] yielded a logP of 3.05.
